{
  "source": "paper PMC3969104",
  "about": "(Journal of Medicinal Chemistry, 2014)",
  "key": {"[1]": {"target": "T1, CK-1δ (Homo sapiens, UniProt P48730)", "T1 sequence (P48730 whole entry)": "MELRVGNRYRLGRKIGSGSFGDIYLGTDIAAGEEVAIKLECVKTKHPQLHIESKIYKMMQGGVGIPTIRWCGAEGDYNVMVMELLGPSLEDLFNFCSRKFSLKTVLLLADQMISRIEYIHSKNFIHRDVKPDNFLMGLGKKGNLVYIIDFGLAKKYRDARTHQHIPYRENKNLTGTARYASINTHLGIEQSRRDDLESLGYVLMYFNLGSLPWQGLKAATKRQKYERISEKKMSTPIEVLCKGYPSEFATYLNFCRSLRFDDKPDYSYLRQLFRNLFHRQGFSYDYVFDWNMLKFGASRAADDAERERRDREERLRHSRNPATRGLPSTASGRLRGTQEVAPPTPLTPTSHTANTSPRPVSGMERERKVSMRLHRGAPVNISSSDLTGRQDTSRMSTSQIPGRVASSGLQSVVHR", "assay": "Kinetic studies on CK-1δ", "format": "biochemical", "details": "ATP 1 to 50 μM, casein 12.5 μM, double reciprocal plot"}, "[2]": {"system": "TDP-43 phosphorylation (pS409/410) in HEK293 cells", "assay": "Ethacrynic acid induced TDP-43 phosphorylation in HEK293 cells"}, "[3]": {"system": "amyotrophic lateral sclerosis (ALS)", "details": "ALS patients; cited from earlier work"}, "[4]": {"system": "elav-Gal4GS > UAS-hTDP-43 transgenic flies", "assay": "Lifespan of transgenic hTDP-43 Drosophila", "format": "in vivo", "details": "100 nM compound, log rank test versus DMSO"}, "[5]": {"target": "T1, CK-1δ", "format": "biochemical"}, "[6]": {"system": "290 kinases panel", "details": "cited from earlier work"}, "[7]": {"target": "CK-1ε (Homo sapiens, UniProt P49674)", "assay": "KinomeScan screening, CK-1ε", "format": "binding", "details": "10 μM"}, "[8]": {"target": "DYRK1A (Homo sapiens, UniProt Q13627)", "assay": "KinomeScan screening, DYRK1A", "format": "binding", "details": "10 μM"}, "[9]": {"system": "panel of 456 protein kinases", "assay": "KinomeScan selectivity screening on a kinase panel", "format": "binding, human", "details": "10 μM, 456 kinases; number of kinases bound divided by distinct kinases tested"}, "[10]": {"target": "T1, CK-1δ", "assay": "KinomeScan screening, CK-1δ", "format": "binding", "details": "10 μM"}, "[11]": {"target": "CK-1α1 (Homo sapiens, UniProt P48729)", "sequence (P48729 whole entry)": "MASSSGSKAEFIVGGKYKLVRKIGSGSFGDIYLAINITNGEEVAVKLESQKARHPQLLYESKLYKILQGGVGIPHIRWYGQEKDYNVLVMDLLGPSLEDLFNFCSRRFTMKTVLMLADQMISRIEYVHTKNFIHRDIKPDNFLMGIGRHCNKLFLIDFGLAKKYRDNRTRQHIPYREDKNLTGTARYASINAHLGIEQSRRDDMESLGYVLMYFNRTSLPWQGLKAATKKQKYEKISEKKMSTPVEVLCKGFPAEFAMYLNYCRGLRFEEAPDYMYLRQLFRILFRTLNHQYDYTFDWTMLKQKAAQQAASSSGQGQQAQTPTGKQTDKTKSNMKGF", "assay": "KinomeScan screening, CK-1α1", "format": "binding", "details": "10 μM"}, "[12]": {"target": "CDC like kinase 1 (CLK1) (Homo sapiens, UniProt P49759)", "sequence (P49759 whole entry)": "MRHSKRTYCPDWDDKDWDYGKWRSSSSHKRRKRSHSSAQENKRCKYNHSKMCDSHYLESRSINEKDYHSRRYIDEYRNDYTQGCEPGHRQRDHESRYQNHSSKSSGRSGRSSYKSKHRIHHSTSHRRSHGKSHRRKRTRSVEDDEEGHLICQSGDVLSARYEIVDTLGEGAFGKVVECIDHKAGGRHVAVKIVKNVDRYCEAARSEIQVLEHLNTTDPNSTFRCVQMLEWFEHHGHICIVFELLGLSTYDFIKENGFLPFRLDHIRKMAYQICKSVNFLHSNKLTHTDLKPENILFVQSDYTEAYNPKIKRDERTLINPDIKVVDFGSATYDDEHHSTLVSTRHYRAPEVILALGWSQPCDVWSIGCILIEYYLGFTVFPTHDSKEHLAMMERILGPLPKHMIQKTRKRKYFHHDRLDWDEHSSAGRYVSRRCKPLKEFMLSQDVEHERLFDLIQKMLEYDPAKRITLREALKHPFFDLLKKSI", "assay": "KinomeScan screening, CLK1", "format": "binding", "details": "10 μM"}, "[13]": {"target": "CK-1γ2 (Homo sapiens, UniProt P78368)", "sequence (P78368 whole entry)": "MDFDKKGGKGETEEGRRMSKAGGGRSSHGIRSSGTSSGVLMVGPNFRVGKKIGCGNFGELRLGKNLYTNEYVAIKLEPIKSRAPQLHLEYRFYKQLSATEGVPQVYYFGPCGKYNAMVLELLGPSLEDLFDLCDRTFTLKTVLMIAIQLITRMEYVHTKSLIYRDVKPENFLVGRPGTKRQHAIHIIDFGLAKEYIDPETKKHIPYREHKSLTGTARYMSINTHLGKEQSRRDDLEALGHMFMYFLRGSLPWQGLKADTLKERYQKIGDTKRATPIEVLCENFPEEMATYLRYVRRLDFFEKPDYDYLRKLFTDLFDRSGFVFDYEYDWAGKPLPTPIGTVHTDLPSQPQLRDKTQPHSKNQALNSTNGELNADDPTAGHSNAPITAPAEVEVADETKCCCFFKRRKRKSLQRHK", "assay": "KinomeScan screening, CK-1γ2", "format": "binding", "details": "10 μM"}, "[14]": {"target": "fms-related tyrosine kinase 1 (FLT1) (Homo sapiens, UniProt P17948)", "sequence (P17948 27-1338)": "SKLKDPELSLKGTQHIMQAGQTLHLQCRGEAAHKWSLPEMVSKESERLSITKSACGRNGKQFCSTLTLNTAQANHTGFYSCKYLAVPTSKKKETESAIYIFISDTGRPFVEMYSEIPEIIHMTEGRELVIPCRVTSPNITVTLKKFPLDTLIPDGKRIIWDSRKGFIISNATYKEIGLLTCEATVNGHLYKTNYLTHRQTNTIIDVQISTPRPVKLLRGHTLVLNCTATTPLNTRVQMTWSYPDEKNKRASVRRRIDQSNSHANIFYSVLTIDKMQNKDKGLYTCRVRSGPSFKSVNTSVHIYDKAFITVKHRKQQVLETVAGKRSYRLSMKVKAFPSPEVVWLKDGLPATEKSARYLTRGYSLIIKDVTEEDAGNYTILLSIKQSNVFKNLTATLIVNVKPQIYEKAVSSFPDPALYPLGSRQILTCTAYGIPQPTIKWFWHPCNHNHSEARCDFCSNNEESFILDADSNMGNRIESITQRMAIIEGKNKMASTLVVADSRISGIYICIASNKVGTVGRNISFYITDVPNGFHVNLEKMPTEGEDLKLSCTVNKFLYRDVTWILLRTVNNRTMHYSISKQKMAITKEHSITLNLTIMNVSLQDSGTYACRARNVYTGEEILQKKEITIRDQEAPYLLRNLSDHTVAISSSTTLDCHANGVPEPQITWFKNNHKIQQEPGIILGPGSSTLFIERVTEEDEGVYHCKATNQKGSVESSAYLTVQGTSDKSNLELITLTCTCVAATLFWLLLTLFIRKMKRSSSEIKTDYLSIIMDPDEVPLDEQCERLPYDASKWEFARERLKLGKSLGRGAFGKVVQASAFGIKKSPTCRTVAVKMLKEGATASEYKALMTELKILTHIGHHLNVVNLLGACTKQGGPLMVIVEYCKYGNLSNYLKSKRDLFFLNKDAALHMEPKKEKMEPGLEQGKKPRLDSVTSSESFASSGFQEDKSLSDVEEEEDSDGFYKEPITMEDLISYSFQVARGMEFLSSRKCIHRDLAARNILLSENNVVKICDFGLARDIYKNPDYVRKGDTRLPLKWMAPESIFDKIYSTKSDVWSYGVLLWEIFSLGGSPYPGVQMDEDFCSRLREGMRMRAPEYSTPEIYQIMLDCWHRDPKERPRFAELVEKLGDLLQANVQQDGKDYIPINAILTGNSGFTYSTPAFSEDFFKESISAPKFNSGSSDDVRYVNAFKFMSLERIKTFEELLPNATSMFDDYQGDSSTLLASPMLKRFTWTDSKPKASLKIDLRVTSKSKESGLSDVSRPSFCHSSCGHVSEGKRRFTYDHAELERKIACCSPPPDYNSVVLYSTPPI", "assay": "KinomeScan screening, FLT1", "format": "binding", "details": "10 μM"}, "[15]": {"target": "DYRK1B (Homo sapiens, UniProt Q9Y463)", "sequence (Q9Y463 whole entry)": "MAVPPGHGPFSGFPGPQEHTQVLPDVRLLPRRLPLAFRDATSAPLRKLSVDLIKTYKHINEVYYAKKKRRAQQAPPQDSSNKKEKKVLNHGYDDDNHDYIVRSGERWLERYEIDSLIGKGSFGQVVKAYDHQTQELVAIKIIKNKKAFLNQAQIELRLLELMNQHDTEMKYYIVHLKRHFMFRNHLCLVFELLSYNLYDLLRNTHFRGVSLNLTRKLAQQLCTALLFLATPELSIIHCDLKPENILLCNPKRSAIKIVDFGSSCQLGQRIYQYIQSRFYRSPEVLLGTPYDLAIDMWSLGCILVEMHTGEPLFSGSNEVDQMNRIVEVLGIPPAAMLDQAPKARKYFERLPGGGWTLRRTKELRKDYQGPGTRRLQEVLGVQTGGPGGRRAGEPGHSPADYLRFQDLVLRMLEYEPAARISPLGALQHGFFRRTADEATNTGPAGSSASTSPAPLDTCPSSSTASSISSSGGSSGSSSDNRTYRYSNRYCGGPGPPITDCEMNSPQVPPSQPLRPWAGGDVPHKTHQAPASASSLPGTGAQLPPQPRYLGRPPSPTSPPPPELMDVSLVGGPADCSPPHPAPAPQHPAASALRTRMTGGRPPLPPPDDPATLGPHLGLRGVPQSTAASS", "assay": "KinomeScan screening, DYRK1B", "format": "binding", "details": "10 μM"}, "[16]": {"target": "platelet-derived growth factor receptor (PDGFRB) (Homo sapiens, UniProt P09619)", "sequence (P09619 33-1106)": "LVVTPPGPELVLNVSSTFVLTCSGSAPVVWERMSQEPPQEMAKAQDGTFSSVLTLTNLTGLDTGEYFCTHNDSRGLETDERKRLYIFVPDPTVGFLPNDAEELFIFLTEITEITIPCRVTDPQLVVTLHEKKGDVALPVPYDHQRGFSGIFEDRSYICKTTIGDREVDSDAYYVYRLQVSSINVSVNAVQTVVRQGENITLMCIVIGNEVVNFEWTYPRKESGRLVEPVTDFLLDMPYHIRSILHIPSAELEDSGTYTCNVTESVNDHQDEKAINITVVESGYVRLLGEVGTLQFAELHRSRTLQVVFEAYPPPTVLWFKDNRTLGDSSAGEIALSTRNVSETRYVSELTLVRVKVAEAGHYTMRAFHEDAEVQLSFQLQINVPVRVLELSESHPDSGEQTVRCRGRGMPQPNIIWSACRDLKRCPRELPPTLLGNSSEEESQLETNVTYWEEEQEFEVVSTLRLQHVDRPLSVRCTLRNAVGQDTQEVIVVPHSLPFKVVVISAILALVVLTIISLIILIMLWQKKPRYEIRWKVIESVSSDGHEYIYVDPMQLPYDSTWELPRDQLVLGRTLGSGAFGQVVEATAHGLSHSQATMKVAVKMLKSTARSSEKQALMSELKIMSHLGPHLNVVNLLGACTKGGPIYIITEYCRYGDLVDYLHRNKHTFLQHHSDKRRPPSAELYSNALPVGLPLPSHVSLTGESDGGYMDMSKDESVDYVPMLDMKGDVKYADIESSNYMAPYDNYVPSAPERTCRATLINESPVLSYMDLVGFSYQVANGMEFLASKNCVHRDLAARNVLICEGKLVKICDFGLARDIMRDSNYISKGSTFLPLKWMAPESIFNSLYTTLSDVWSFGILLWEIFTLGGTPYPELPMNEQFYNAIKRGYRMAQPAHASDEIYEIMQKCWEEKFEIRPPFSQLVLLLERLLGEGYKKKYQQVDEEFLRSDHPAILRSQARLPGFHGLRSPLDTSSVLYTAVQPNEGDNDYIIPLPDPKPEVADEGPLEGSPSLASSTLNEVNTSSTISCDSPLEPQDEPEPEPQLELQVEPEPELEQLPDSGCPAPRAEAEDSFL", "assay": "KinomeScan screening, PDGFRB", "format": "binding", "details": "10 μM"}, "[17]": {"target": "CDC like kinase 4 (CLK4) (Homo sapiens, UniProt Q9HAZ1)", "assay": "KinomeScan screening, CLK4", "format": "binding", "details": "10 μM"}, "[18]": {"target": "T2, myosin light chain kinase 3 (MLCK) (Homo sapiens, UniProt Q32MK0)", "T2 sequence (Q32MK0 1-819)": "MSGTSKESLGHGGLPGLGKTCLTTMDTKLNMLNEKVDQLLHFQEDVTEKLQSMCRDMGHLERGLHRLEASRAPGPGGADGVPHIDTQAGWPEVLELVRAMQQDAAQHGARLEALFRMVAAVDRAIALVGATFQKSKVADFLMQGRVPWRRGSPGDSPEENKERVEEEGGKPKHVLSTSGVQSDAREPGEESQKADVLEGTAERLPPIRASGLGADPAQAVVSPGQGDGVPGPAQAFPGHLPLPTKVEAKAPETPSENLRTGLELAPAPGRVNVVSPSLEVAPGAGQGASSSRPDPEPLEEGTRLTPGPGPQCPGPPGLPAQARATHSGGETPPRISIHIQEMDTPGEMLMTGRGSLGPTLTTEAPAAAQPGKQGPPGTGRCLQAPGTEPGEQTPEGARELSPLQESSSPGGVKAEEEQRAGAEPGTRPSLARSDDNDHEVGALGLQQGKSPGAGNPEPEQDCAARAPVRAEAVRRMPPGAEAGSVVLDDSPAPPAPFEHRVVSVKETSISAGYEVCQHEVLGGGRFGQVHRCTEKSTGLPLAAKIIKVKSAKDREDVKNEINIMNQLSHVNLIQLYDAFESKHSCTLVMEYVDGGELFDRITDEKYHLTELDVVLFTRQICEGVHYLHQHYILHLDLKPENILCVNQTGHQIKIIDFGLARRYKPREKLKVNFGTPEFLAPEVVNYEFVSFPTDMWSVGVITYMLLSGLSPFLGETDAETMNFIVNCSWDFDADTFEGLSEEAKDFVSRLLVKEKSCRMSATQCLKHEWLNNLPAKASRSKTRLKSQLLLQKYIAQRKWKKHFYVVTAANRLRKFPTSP", "assay": "KinomeScan screening, MLCK", "format": "binding", "details": "10 μM"}, "[19]": {"assay": "PAMPA-BBB permeability assay", "details": "PAMPA vehicle PBS:EtOH (70:30)"}, "[20]": {"details": "HEK293, 1.5 h pretreatment, 150 μM ethacrynic acid"}},
  "data": [
    {"smiles": "COc1ccccc1CC(=O)Nc1nc2ccc(C(F)(F)F)cc2s1", "note": "[Compound 34, N-(6-(Trifluoromethyl)benzothiazol-2-yl)-2-(2-methoxyphenyl)acetamide]", "values": [
      {"measurement": "mechanism of CK-1δ inhibition with respect to ATP", "setting": "[1]", "value": "ATP competitive inhibition"},
      {"measurement": "concentration with inhibition of TDP-43 phosphorylation", "setting": "[2]; [20]", "value": "above 80 μM"}
    ]},
    {"smiles": "O=C(Cc1ccccc1)Nc1nc2ccc(C(F)(F)F)cc2s1", "note": "[Compound 46, N-(6-(Trifluoromethyl)benzothiazol-2-yl)-2-phenylacetamide]", "values": [
      {"measurement": "concentration with nearly complete absence of TDP-43 phosphorylation", "setting": "[2]; HEK293, 1.5 h pretreatment, 150 μM ethacrynic acid, range 1.25-160 μM", "value": "≥ 2.5", "unit": "µM"}
    ]},
    {"smiles": "Nc1nc2ccc(OC(F)(F)F)cc2s1", "note": "[Riluzole]", "values": [
      {"measurement": "extension of survival", "setting": "[3]", "value": "2–3 months"}
    ]},
    {"smiles": "COc1ccc2nc(NC(=O)Cc3ccccc3OC)sc2c1", "note": "[Compound 35, N-(6-Methoxybenzothiazol-2-yl)-2-(2-methoxyphenyl)acetamide]", "values": [
      {"measurement": "effect on fly lifespan", "setting": "[4]", "value": "significantly increased"},
      {"measurement": "fold less potent than 20 and 24 as CK-1δ inhibitor", "setting": "[5]", "value": 100, "unit": "fold"}
    ]},
    {"smiles": "O=C(Cc1cccc(C(F)(F)F)c1)Nc1nc2ccc(C(F)(F)F)cc2s1", "note": "[Compound 41, N-(6-(Trifluoromethyl)benzothiazol-2-yl)-2-(3-(trifluoromethyl)phenyl)acetamide]", "values": [
      {"measurement": "fold reduction in TDP-43 phosphorylation", "setting": "[2]; HEK293, by 10 μM inhibitor", "value": "greater than 2 fold"}
    ]},
    {"smiles": "CCN(CC)CCNC(=O)c1c(C)[nH]c(/C=C2\\C(=O)Nc3ccc(F)cc32)c1C", "note": "[Sunitinib]", "values": [
      {"measurement": "S score", "setting": "[6]", "value": 0.57}
    ]},
    {"smiles": "COc1cc(OC)c(C=C2C(=O)Nc3ccccc32)c(OC)c1", "note": "[IC261, reference compound]", "values": [
      {"measurement": "mechanism of CK-1δ inhibition with respect to ATP", "setting": "[1]", "value": "ATP competitive inhibitor"}
    ]},
    {"smiles": "O=C(Cc1cccc(Cl)c1)Nc1nc2ccc(C(F)(F)F)cc2s1", "note": "[Compound 20, 2-(3-Chlorophenyl)-N-(6-(trifluoromethyl)benzothiazol-2-yl)acetamide]", "values": [
      {"measurement": "inhibition of CK-1ε", "setting": "[7]", "value": "inhibited"},
      {"measurement": "inhibition of DYRK1A", "setting": "[8]", "value": "inhibited"},
      {"measurement": "selectivity score (S score)", "setting": "[9]", "value": 0.04},
      {"measurement": "effect on fly lifespan", "setting": "[4]", "value": "significantly increased"},
      {"measurement": "inhibition of CK-1δ", "setting": "[10]", "value": "inhibited"},
      {"measurement": "inhibition of CK-1α1", "setting": "[11]", "value": "inhibited"},
      {"measurement": "mechanism of CK-1δ inhibition with respect to ATP", "setting": "[1]", "value": "ATP competitive inhibition"},
      {"measurement": "inhibition of CLK1", "setting": "[12]", "value": "inhibited"},
      {"measurement": "inhibition of CK-1γ2", "setting": "[13]", "value": "inhibited"},
      {"measurement": "inhibition of FLT1", "setting": "[14]", "value": "inhibited"},
      {"measurement": "inhibition of DYRK1B", "setting": "[15]", "value": "inhibited"},
      {"measurement": "inhibition of PDGFRB", "setting": "[16]", "value": "inhibited"},
      {"measurement": "concentration with inhibition of TDP-43 phosphorylation", "setting": "[2]; [20]", "value": "above 80 μM"},
      {"measurement": "inhibition of CLK4", "setting": "[17]", "value": "inhibited"},
      {"measurement": "inhibition of MLCK", "setting": "[18]", "value": "inhibited"}
    ]},
    {"smiles": "O=C(Cc1ccccc1Cl)Nc1nc2ccc(C(F)(F)F)cc2s1", "note": "[Compound 24, 2-(2-Chlorophenyl)-N-(6-(trifluoromethyl)benzothiazol-2-yl)acetamide]", "values": [
      {"measurement": "inhibition of CK-1ε", "setting": "[7]", "value": "inhibited"},
      {"measurement": "solubility in the assay vehicle", "setting": "[19]", "value": "low solubility"},
      {"measurement": "inhibition of DYRK1A", "setting": "[8]", "value": "inhibited"},
      {"measurement": "effect on fly lifespan", "setting": "[4]", "value": "significantly increased"},
      {"measurement": "inhibition of CK-1δ", "setting": "[10]", "value": "inhibited"},
      {"measurement": "inhibition of CK-1α1", "setting": "[11]", "value": "inhibited"},
      {"measurement": "mechanism of CK-1δ inhibition with respect to ATP", "setting": "[1]", "value": "ATP competitive inhibition"},
      {"measurement": "inhibition of CLK1", "setting": "[12]", "value": "inhibited"},
      {"measurement": "inhibition of CK-1γ2", "setting": "[13]", "value": "inhibited"},
      {"measurement": "inhibition of FLT1", "setting": "[14]", "value": "inhibited"},
      {"measurement": "inhibition of DYRK1B", "setting": "[15]", "value": "inhibited"},
      {"measurement": "inhibition of PDGFRB", "setting": "[16]", "value": "inhibited"},
      {"measurement": "concentration with moderate inhibition of TDP-43 phosphorylation", "setting": "[2]; [20]", "value": "≥ 1.25", "unit": "µM"},
      {"measurement": "inhibition of CLK4", "setting": "[17]", "value": "inhibited"},
      {"measurement": "inhibition of MLCK", "setting": "[18]", "value": "inhibited"}
    ]},
    {"smiles": "CS(=O)(=O)CCNCc1ccc(-c2ccc3ncnc(Nc4ccc(OCc5cccc(F)c5)c(Cl)c4)c3c2)o1", "note": "[Lapatinib]", "values": [
      {"measurement": "S score", "setting": "[6]", "value": 0.010}
    ]},
    {"smiles": "COc1cccc(CC(=O)Nc2nc3ccc(C(F)(F)F)cc3s2)c1", "note": "[Compound 38, N-(6-(Trifluoromethyl)benzothiazol-2-yl)-2-(3-methoxyphenyl)acetamide]", "values": [
      {"measurement": "concentration giving significant reduction of TDP-43 phosphorylation", "setting": "[2]; [20]", "value": 5, "unit": "µM"}
    ]},
    {"smiles": "O=C(Cc1ccc(Cl)cc1)Oc1nc2ccccc2s1", "note": "[Compound 9, (Benzothiazol-2-yl)-2-(4-chlorophenyl)acetate]", "values": [
      {"measurement": "effect on fly lifespan", "setting": "[4]", "value": "did not significantly modify fly longevity"}
    ]}
  ]
}
